These results are taken from patent US20220041691A1, “METHODS FOR DIAGNOSING OR TREATING POST-TRAUMATIC STRESS DISORDER, AND COMPOSITIONS THEREFOR” (Centre for Addiction and Mental Health, priority 2018, published 2022).

For one assay, the target named is T1, GR-FKBP51 complex (Mus musculus, UniProt Q64378).
T1 construct: from tissue; host or cells: C57Bl/6 mouse brain (acute slices; whole-brain lysate) and blood lymphocytes
T1 sequence (Q64378 1-456): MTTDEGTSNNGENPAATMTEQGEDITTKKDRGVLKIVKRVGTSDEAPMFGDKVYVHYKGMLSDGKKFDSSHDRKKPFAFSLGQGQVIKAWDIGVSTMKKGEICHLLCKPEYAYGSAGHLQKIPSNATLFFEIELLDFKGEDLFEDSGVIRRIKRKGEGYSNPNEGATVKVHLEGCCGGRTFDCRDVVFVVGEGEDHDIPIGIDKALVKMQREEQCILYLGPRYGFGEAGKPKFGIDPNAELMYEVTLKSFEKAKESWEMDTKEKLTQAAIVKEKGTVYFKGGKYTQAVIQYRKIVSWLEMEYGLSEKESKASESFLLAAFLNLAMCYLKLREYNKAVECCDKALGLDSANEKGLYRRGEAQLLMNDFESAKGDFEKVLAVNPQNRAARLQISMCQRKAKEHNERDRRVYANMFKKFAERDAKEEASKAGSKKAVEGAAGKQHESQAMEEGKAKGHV
The assay can be described thus: Co-immunoprecipitation of GR-FKBP51 complex in brain and lymphocyte lysate of fear-conditioned mice injected with peptide. Type of assay: in vivo. How it is done: Furthermore, testing was performed to determine whether disrupting the GR-FKBP51 complex reduced consolidation of cued fear memory. Thus, TAT or TAT-GRpep was administered two hours after the end of fear conditioning training (FIG. 4C), before five consecutive daily extinction sessions of cue exposure without shock.
(§1) Co-immunoprecipitation and Western blot analyses were performed as previously described.^24, 25, 26 For co-immunoprecipitation, 500˜1000 μg solubilized protein was extracted from whole mouse brain and incubated with primary antibody or control IgG (2˜4 μg) for 4 hrs at 4° C., followed by the addition of 25 μl protein A/G plus agarose (Santa Cruz Biotechnology) for 12 hrs. Pellets were washed, boiled for 5 min in SDS sample buffer and subjected to SDS-PAGE. 50˜100 μg of total protein extract was used as control in each experiment. After transfer of proteins into nitrocellulose, membranes were Western blotted with the primary antibodies. The intensity of protein level was quantified by densitometry (software: ImageLab, Bio-Rad).

Assay [1] deals with GR and FKBP52 colocalization in primary neurons. The assay can be described thus: Immunocytochemistry of GR and FKBP52 in primary mouse neurons. The format is cell-based. How it is done: Cortical tissues from embryonic day (E14) mouse brains were dissected out, incubated with 0.25% trypsin for 15 min at 37° C., and dissociated by mechanical trituration. Neurons were then plated at a desired density onto glass coverslips previously coated with 0.1 mg/ml poly-d-lysine, and grown in Neurobasal medium with 1× Glutamax, 1×B27, 100 U/ml penicillin and 100 μg/ml streptomycin in an incubator (37° C., 5% CO2). Either 10 μM of TAT-GRpep, 10 μM TAT-control peptide or saline were added in culture plates for 45 min in advance at 8 days in vitro (8 DIV).
Cultured neurons were fixed in 4% PFA/4% sucrose, permeabilized with 0.1M PBS containing 0.1% Triton X-100 for 10 min, and blocked for 1 hour with 1% bovine serum albumin in PBS at room temperature. They were incubated with primary antibodies overnight at 4° C. and secondary antibodies for 1 hour at room temperature. The following primary antibodies were used: anti-GR (1:200; Thermo), anti-FKBP51 (1:200; Abcam) and anti-FKBP52 (1:200; Abcam). […] DAPI was used to stain cell nuclei.

For assay [2], the system named is GR phosphorylation at S211. The assay can be described thus: Western blot of GR phosphorylation at S211 in brain lysate of fear-conditioned mice. The format is in vivo, mouse. The note with it: brain lysate of fear-conditioned mice injected with TAT or TAT-GRpep; p<0.05, n=3.
From the text: To further investigate these findings, surface plasmon resonance (SPR) was used to estimate association and dissociation rates between GR and FKBP51. […] Thus, GR S211 phosphorylation seems to reduce GR affinity for FKBP51. Conversely, disruption of the GR-FKBP51 complex with TAT-GRpep could increase GR S211 phosphorylation, which is what was observed when comparing fear-conditioned mice treated with TAT-GRpep vs. TAT control or no treatment (FIG. 5 I-J).
as §1, with “Bio-Rad). […]” for “Bio-Rad).”
(In general: In western blotting, separated proteins are transferred to a membrane and probed.)

The test system of another assay is GR-FKBP52 complex. The assay can be described thus: Co-immunoprecipitation of GR-FKBP52 complex in brain of fear-conditioned mice. Type of assay: in vivo. The note with it: fear-conditioned mouse brain, 3 nmol/g i.p; vs TAT alone or saline; p<0.05, n=3. How it is done:
as §1

Entries after “also recorded” stand apart in the source; their conditions may differ.

“GRKKRRQRRRPQSPWRSDLLIDENCLL (Amino Acid Sequence of TAT-GRpep Peptide)”: in the assay with GR-FKBP51 complex (brain lysate of fear-conditioned mice injected with TAT or TAT-GRpep, p<0.05, n=3), the “GR-FKBP51 complex level in brain (co-immunoprecipitation)” value is recorded as “able to block the increase of GR-FKBP51 complex; also recorded: disrupt the GR-FKBP51 complex”. For the same sequence, in the assay with GR-FKBP51 complex (lymphocyte lysate from blood of fear-conditioned mice, p<0.01 vs TAT, n=4), the “GR-FKBP51 complex level in lymphocyte lysate / peripheral blood (co-immunoprecipitation)” value is reported as “able to disrupt the GR-FKBP51 complex”. For the same sequence, the “nuclear GR levels” value in assay [1] (primary mouse neuron cultures, confocal microscope) is “markedly increased nuclear GR levels”. For the same sequence, in assay [1] (primary neurons 8 DIV, 10 μM, 45 min), the “nuclear GR-FKBP52 colocalization” value is given as “marked increase in nuclear GR-FKBP52 colocalization”. In assay [1] (primary neurons 8 DIV, 10 μM, 45 min, vs saline and control peptide), the “colocalization between GR and FKBP52” value is “significantly more colocalization between GR and FKBP52; also recorded: co-localized more”. In addition, in assay [2], the “GR phosphorylation at S211” value is “able to block the decrease of GR phosphorylation at S211; also recorded: blocked the decrease in GR S211 phosphorylation”. In addition, in the assay with GR-FKBP52 complex, the “GR-FKBP52 complex (FKBP52 co-immunoprecipitated by GR antibody)” value is reported as “more FKBP52 was co-immunoprecipitated by GR antibody; also recorded: significant increases in GR-FKBP52 complex levels”.
